Patent publication US20060099568A1, “Signals and molecular species involved in senescence” (priority 2002, published 2006)
Entries after “also recorded” stand apart in the source; their conditions may differ.

Experiments:
[1] = test system: human diploid fibroblasts; assay: confocal microscopic measurement of actin polymerization (NBD-phallacidin); format: cell-based; details: PDGF 50 ng/ml, LPA 1 μg/ml
Description: FIG. 2 represents differential changes in growth factor-induced actin polymerization in senescent fibroblasts. […] The cells were fixed, permeabilized, and stained with NBD-phallacidin, then photographed.
F-actin was stained as described by Shin et al. (1999). Quiescent cells grown on glass cover slips in multi-well culture plates were treated with agonists for 30 min, and the cells were fixed with 3.7% paraformaldehyde in PBS for 30 min on ice. Following permeabilization with 0.2% Triton X-100 in PBS for 15 min on ice, the cells were stained with […] NBD-phallacidin in PBS for 30 min at RT. The stained cells were washed three times with PBS for 15 min and the cover slip was mounted on a slide glass with Gelvatol, which was prepared by mixing 100 ml of 23% polyvinyl alcohol in PBS with 50 ml glycerol. The cells were then observed under a confocal fluorescence microscope.

[2] = test system: human diploid fibroblasts; assay: DNA synthesis, [3H]thymidine incorporation; format: cell-based
Description: FIG. 5 represents reduction of growth factor-induced thymidine incorporation in near-senescent fibroblasts. […] The amount of [^3H]thymidine incorporated into DNA over 4 hrs was measured as described. The data represents an average of 3 counts in cpm. A representative experiment of the three is presented in A. Fold increase over the untreated control was calculated and plotted in B.
FIG. 18 represents changes in LPA-induced thymidine incorporation and cell proliferation in near-senescent fibroblasts versus presenescent fibroblasts. Subconfluent presenescent (passage 8, Pa 8) and near-senescent (passage 24, Pa 24) fibroblasts were serum-starved for 2 days and treated with LPA (1-70 μg/ml) for 16 hrs. The amount of [^3H]thymidine incorporated into DNA over 4 hrs was measured as described. The data represents an average of 3 counts in cpm in each independent experiments. A representative experiment of the three is presented in A. Converted fold increase over the untreated control was calculated and plotted in B.
Quiescent cells were labeled with [^3H]thymidine (0.5 μCi/ml) for 4 hrs and the […] radioactive thymidine was removed by washing with PBS. DNA was precipitated with 10% TCA and lysed in 0.5N NaOH. The radioactivity in neutralized lysates was counted in a liquid scintillation cocktail.

cellular cAMP = assay: measurement of cyclic AMP accumulation (cAMP binding assay); format: cell-based, human
Description: FIG. 9 represents LPA-induced alteration of cellular cAMP content in presenescent and near-senescent fibroblasts. Subconfluent presenescent (passage 8, Pa 8) and near-senescent (passage 24, Pa 24) fibroblasts were serum-starved for 2 days and treated with LPA: A, 1-70 μg/ml LPA for 30 min; B, 30 μg/ml LPA for the indicated times. The level of cAMP in the acid extracts was measured by cAMP binding assay. The data represents an average of triplicate experiments.
Subconfluent near-senescent (passage 26, Pa 26) fibroblasts were serum-starved for 2 days and treated with 30 μg/ml LPA for the indicated times in the absence or presence of 10 μM PKC inhibitor bisindolylmaleiamide (bIM). The level of cAMP in the acid extracts was measured by cAMP binding assay. The data represents an average of triplicate experiments.
Cells grown on a 12 well-plate were serum-starved by incubating with SFM for 2 days. After the cells were equilibrated in the fresh SFM medium for 1 hour, they were treated with LPA as described in the figure. The reaction was terminated by removing the medium and by adding 2.5 M perchloric acid. The acid extract was stored at −20° C. until use. The acid extract was neutralized with 4.2 M KOH and the cAMP content was determined by competitive binding with [^3H]cAMP to the cAMP binding protein, RIα of cAMP-dependent protein kinase, as described by Jang and Juhnn (2001). After the extraction, cells were lyzed with 0.1 N NaOH and analyzed for protein content using the Bradford protein assay reagent. The cAMP content was normalized to the amount of acid-insoluble protein.

[3] = test system: human diploid fibroblasts; assay: measurement of cytosolic free [Ca2+]i by confocal microscopy (fluo-3-AM); format: cell-based; details: PDGF 50 ng/ml, LPA 1 μg/ml
Description: FIG. 1 represents differential changes in growth factor-stimulated calcium release in senescent fibroblasts. Presenescent (passage 7: A and C) and senescent (passage 27: B and D) fibroblasts were grown on coverslips, serum-starved, and incubated with 4 μM fluo-3-AM in serum-free medium for 40 min. The stained cells were treated with […] of platelet-derived growth factor (A and B) or 1 μg/ml of lysophosphatidic acid (C and D) via a micro-perfusion system for the real-time measurement of signaling molecules, and laser scanning confocal microscopy. The scanned images were analyzed for changes in intracellular Ca^2+ at the single cell level and results expressed as relative fluorescence intensity (RFI).
[Ca^2+]i was measured using a laser scanning confocal microscope, as described by Junn et al. (2000). Quiescent fibroblasts grown on glass cover slips in a 6-well plate were stained with 4 μM of fluo-3-acetoxymethyl ester (fluo-3-AM) in phenol red-free medium without serum for 40 min and washed three times with the serum-free medium. Stained cells on each cover slip were mounted on a perfusion chamber (MPS-1000, Seoul Engineering, Korea), placed under the confocal laser scanning microscope (Carl Zeiss LSM 410), and scanned every 5 sec with a 488 nm excitation argon laser and a 515 nm long pass emission filter. Growth factors were added to the cells using an automatic pumping system (self-designed). All scanned images were analyzed for [Ca ^2+]i changes at the single cell level using “Time Series Program” for a real-time measurement of relative fluorescence intensity (RFI) which is installed in the Carl Zeiss LSM 410 confocal system.

phospholipase D (PLD) = assay: phosphatidylbutanol formation as an indication of phospholipase D activity; format: cell-based, human; details: passage 24 near-senescent cells vs presenescent; 0.5% 1-butanol, 20 min
Description: Subconfluent presenescent (passage 8: Pa 8) and near-senescent (passage 24: Pa 24) cells were serum-starved and labeled with [^3H]myristic acid overnight. […] A representative experiment of three performed in duplicate is presented.
Quiescent cells were labeled overnight with [^3H]myristic acid (1 μCi/ml) and then washed with PBS. Phosphatidylbutanol formation was measured as described by Yeo et al. (1994). Cells were preincubated with 0.5% (v/v) 1-butanol for 15 min and then treated with agonists for 20 min in the presence of 0.5% 1-butanol. Total lipids were extracted and separated by thin layer chromatography. The band of phosphatidylbutanol was scraped off the plates and its radioactivity was counted in a liquid scintillation cocktail.

With lysophosphatidic acid [LPA] the “actin polymerization (stress fibers)” value ([1]; presenescent fibroblasts (passage 10)) was “enhanced the formation of stress fibers”, the “agonist-induced actin polymerization in senescent cells” value ([1]; senescent cells (passage 27)) was “partially reduced” and the “fold increase of [3H]thymidine incorporation over untreated control, near-senescent vs presenescent” value ([2]; 50-70 μg/ml LPA) was “slightly higher”. The “agonist-induced DNA synthesis ([3H]thymidine incorporation) in near-senescent cells vs presenescent” value ([2]; near-senescent cells (passage 24)) was “reduced but less so than PDGF; also recorded: reduced”, the “concentration at which increase of [3H]thymidine incorporation is apparent” value ([2]; presenescent fibroblasts) was 10 µg/mL and the “concentration at which increase of [3H]thymidine incorporation is maximal” value ([2]; presenescent fibroblasts) was 50 to 70 µg/mL. The “increase of cellular cAMP content” value (cellular cAMP; near-senescent fibroblasts, 30 μg/ml LPA for 60 min) was 70-80%, the “increase of cellular cAMP” value (cellular cAMP; near-senescent fibroblasts, 30 min, LPA 1-70 μg/ml) was 31-77% and the “decrease of cellular cAMP” value (cellular cAMP; presenescent fibroblasts, 30 min, LPA 1-70 μg/ml) was 33-43%. The “cytosolic Ca2+ levels” value ([3]; presenescent fibroblasts (passage 7)) was “rapid increase”, the “Ca2+ response in senescent cells relative to presenescent” value ([3]; senescent cells (passage 27)) was “not significantly” and the “reduction of PLD activity” value (phospholipase D (PLD)) was “ca. 20%”.
